Where two headings read alike, the source gives them in different places. A value given as a limit tells only on which side of the number the result lay.

Data set [1] relates to apomorphine-induced locomotor hyperactivity and stereotypy. In words: Inhibition of the apomorphine-induced locomotor hyperactivity and stereotypy. The note with it: rat, 2.5 mg/kg oral; for Inhibition of apomorphine-induced LMA as percentage of the control / Inhibition of apomorphine-induced stereotypy as percentage of the control: apomorphine hydrochloride 1 mg/kg s.c.; for Inhibition of apomorphine-induced LMA as percentage of the control: control LMA 100% (438.9 ± 54.7 sec); for Inhibition of apomorphine-induced stereotypy as percentage of the control: control stereotypy 100% (105.0 ± 13.7 sec). It counts as in vivo, male Hannover-Wistar rats. An excerpt:
Apomorphine induces a characteristic syndrome in rats and various animal species which manifests itself in the hyperactivity and stereotypic behavior of the animals [J. Pharm. Pharmacol. 19 627 (1957); J. Neurol. Transm. 40, 97 (1977); J. Psychiat. Res. 11, 1 (1974); J. Pharm. Pharmacol. 25, 1003 (1973); as well as Nature 263, 338 (1976)].
Male Hannover-Wistar rats weighing 160 to 180 g were used in these examinations. The test compounds were suspended in a 2% Tween 80 solution and diluted to the desired concentration by adding distilled water. The corresponding dose was administered to rats in a volume of 5 ml/kg. The control group was treated with the above solution containing no test substance.
One hour following the treatment with 2.5 mg/kg oral dose of the test compound, the rats were subcutaneously treated with 1 mg/kg of apomorphine hydrochloride.
At 15 minutes after administration of apomorphine, the animals were placed in a 5-channel behavior-observing device controlled by a microprocessor and the coordinated and stereotypic motion of the animals were measured for 15 minutes. Chlozapine (chemically 8-chloro-11-(4-methyl-1-piperazinyl)-5H-dibenzo[b,e][1,4]diazepine) was used in a dose of 2.5 mg/kg as reference drug. The results are given as percentages of the control for both motion types.

The nature of data set [2]: Cataleptogenic (catalepsy-inducing) effect. The arrangement: species or system male Wistar rats. The note with it: in vivo; rat; oral; hourly for 6 hours.
Another data set relates to hypoxic memory damage. Description: Inhibition of the hypoxic damage of the memory (nootropic effect), conditioned avoidance in Shuttle-box. It counts as in vivo, male spontaneously (genetically) hypertensive rats. As to conditions: rat, hypoxia 6% oxygen. From the text:
Male, spontaneously (genetically) hypertensive rats weighing 210 to 230 g were used in these examinations. The active avoiding behavior was developed in a 6-channel automated Shuttle-box by a training consisting of 30 cycles during 3 days. Within a single cycle an intermittent light stimulus of 1 Hz frequency for 15 seconds as conditioned stimulus and an electric stimulus of 0.8 mA for 10 seconds as unconditioned stimulus were used with an intersignal time of 15 seconds.
On the 4th day, one hour before the experiment the animals were treated with a 10 mg/kg oral dose of the test compounds. Two control groups were used in these examinations, one of which was treated with placebo whereas the other one was treated with placebo and exposed to hypoxia. Piracetam (chemically 2-oxo-1-pyrrolidineacetic acid amide) and dihydroergotoxine were used as reference drugs. The performance of the animals was examined under hypoxic conditions in such a way that the boxes were flown through at a rate of 200 ml/min/box with a gaseous mixture containing 6% by volume of oxygen and 94% by volume of nitrogen. The number of the conditioned avoidance responses (as abbreviated hereinafter: CAR) was counted. The protective effect of the compounds against the hypoxic memory damage was calculated by using the following formula: [formula] wherein
protective effect means the effect inhibiting the hypoxic memory damage expressed as percentage; and
CAR x means the average value of the number of conditioned responses in the animal group given.
The protective effect of the compounds against the hypoxic memory damage expressed as percentage of the control is shown in Table 2.

Another data set concerns hypobaric hypoxia. In words: Inhibition of the hypobaric hypoxia (survival time). It counts as in vivo, male spontaneously hypertensive rats. As to conditions: for ED50: po, 1 h, read-out: Protection against hypobaric hypoxia, ED50. As for the experimental part: Male, spontaneously hypertensive rats weighing 200 to 220 g were used in these investigations. Groups consisting of 3 animals each were placed into a desiccator of 6 liters by volume, the pressure was decreased to 170 Hgmm (22.66 kPa) within 20 seconds and continuously maintained at the same level. One hour before the examination, the animals were treated with various oral doses of the test compounds. The ED50 values (i.e. the doses prolonging the survival time of the test animals by 50% in comparison to that of the control group treated with placebo) were determined and summarized in Table 3.

Data set [3] relates to triethyl tin chloride-induced cerebral edema. In words: Inhibition of the cerebral (brain) edema induced by triethyl tin chloride. The note with it: rat, TET 2.5 mg/kg daily for 5 days. It counts as in vivo, male Hannover-Wistar rats. As for the experimental part: The cerebral edema-inhibiting effect of the compounds was investigated by the following method [Ann. Pharm. Fr. 42, 431 (1984)].
A group consisting of 7 male Hannover-Wistar rats weighing 180 to 200 g were daily treated with 2.5 mg/kg of triethyl tin chloride (hereinafter TET) for 5 days to induce a cerebral edema. [TET (Merck-Schuchardt, Darmstadt, FRG) was dissolved in distilled water under stirring and the animals were orally treated with the stirred solution daily at 7 a.m.].
The reference and test compounds were homogenized in a 0.5% by weight carboxymethylcellulose solution by using an Ultra Turrax stirrer and the stirring was continued during the administration, too. These compounds were orally given first 1 hour, then 6 hours after the TET treatment in a volume of 0.5 ml/100 g of body-weight in both cases. The control group received the solvent of TET (i.e. distilled water) and the carrier of the compounds (i.e. 0.5% by weight carboxymethylcellulose solution) at the same intervals and volumes as given above.
On the 5th day of treatments, 2 hours following the last administration of the test compound, the animals were decapitated, the whole brain was rapidly taken out, washed with cold, 0.9% by weight sodium chloride solution and the moisture was removed by filter paper. The wet weights of the brains were weighed with an accuracy of one tenth mg and placed onto an aluminum foil previously weighed. Subsequently, the brains were dried at 90° C. for 92 hours, then the total (gross) weight (i.e. the dry brain weight together with the weight of the aluminum foil) was determined. The water content of the brain and the change thereof, respectively, were calculated from the difference of the wet and dry brain weight. The change was expressed as percentage of the protection as follows: [formula] wherein (TET-Ko) means the mean water content (%) of the brain of animals treated with TET and carrier;
(TET-V) means the mean water content (%) of the brain of animals treated with TET and test compound;
(Veh-Ko) means the mean water content (%) of the brain of animals treated with distilled water and carrier.
The deviations of changes in the water content and dry weight of the brain were compared by using Student's "t" trial. Also here, piracetam and dihydroergotoxine were used as reference drugs.

As to `CN1C(=O)OC2(CCN(CCC=C(c3ccc(F)cc3)c3ccc(F)cc3)CC2)C1(C)O.Cl` (stereo not drawn) [A, 8-[4,4-bis(4-fluorophenyl)-3-butenyl]-3,4-dimethyl-4-hydroxy-2-oxo-1-oxa-3,8-diazaspiro[4,5]decane hydrochloride], in data set [1], the “Inhibition of apomorphine-induced LMA as percentage of the control” value is -40 percentage of the control and the “Inhibition of apomorphine-induced stereotypy as percentage of the control” value is 0 percentage of the control. In data set [2], the ED50 at 6 h is above 300 mg/kg.
As for `CC1(O)N(Cc2ccccc2)C(=O)OC12CCN(CCC=C(c1ccc(F)cc1)c1ccc(F)cc1)CC2.Cl` (stereo not drawn) [B, 3-benzyl-8-[4,4-bis(4-fluorophenyl)-3-butenyl]-4-hydroxy-4-methyl-2-oxo-1-oxa-3,8-diazaspiro[4,5]decane hydrochloride], in data set [1], the “Inhibition of apomorphine-induced LMA as percentage of the control” value is reported as -25 percentage of the control and the “Inhibition of apomorphine-induced stereotypy as percentage of the control” value was “+15 percentage of the control”. For the same molecule, the ED50 at 6 h in data set [2] was above 300 mg/kg.
Regarding `CC(C)(C)N1C(=O)OC2(CCN(CCC=C(c3ccc(F)cc3)c3ccc(F)cc3)CC2)C1(C)O.Cl` (stereo not drawn) [C, 3-tert-butyl-8-[4,4-bis(4-fluorophenyl)-3-butenyl]-4-hydroxy-4-methyl-2-oxo-1-oxa-3,8-diazaspiro[4,5]decane hydrochloride], the Protection against amnesia in the data set with hypoxic memory damage (10 mg/kg p.o.) is 64%. Further, the 50% effective dose (ED50) in the data set with hypobaric hypoxia (rat, 170 Hgmm, dose prolonging survival time by 50% vs placebo control) turned out to be 23.7 mg/kg. Also, the “Protection (brain water content, cerebral edema)” value in data set [3] (dose 25 umol/kg oral) worked out at 97.9%; in data set [3] (dose 50 umol/kg oral), 102.0%; in data set [3] (dose 100 umol/kg oral) it was 88.1%.
On to `CN1CCN(C2=Nc3cc(Cl)ccc3Nc3ccccc32)CC1` [Clozapine, 8-chloro-11-(4-methyl-1-piperazinyl)-5H-dibenzo[b,e][1,4]diazepine, reference compound], for which, in data set [1], the “inhibition of stereotypy (in words)” value was “did not inhibit the stereotypy”, the “Inhibition of apomorphine-induced LMA as percentage of the control” value was -25 percentage of the control and the “Inhibition of apomorphine-induced stereotypy as percentage of the control” value is listed as “+11 percentage of the control”. In data set [2], this molecule gave a 50% effective dose (ED50) at 6 h of 31.9 mg/kg.
For the molecule `COc1ccc(CCN2C(=O)OC3(CCN(CCC=C(c4ccc(F)cc4)c4ccc(F)cc4)CC3)C2(C)O)cc1OC.O=C(O)/C=C\C(=O)O` (stereo not drawn) [D, 8-[4,4-bis(4-fluorophenyl)-3-butenyl]-3-[2-(3,4-dimethoxyphenyl)ethyl]-4-hydroxy-4-methyl-2-oxo-1-oxa-3,8-diazaspiro[4,5]decane maleate], in data set [3] (dose 100 umol/kg oral), the “Protection (brain water content, cerebral edema)” value stood at 102.2%.
Take `CC1(O)NC(=O)OC12CCN(CCC=C(c1ccc(F)cc1)c1ccc(F)cc1)CC2.Cl` (stereo not drawn) [E, 8-[4,4-bis(4-fluorophenyl)-3-butenyl]-4-hydroxy-4-methyl-2-oxo-1-oxa-3,8-diazaspiro[4,5]decane hydrochloride]: in data set [3] (dose 100 umol/kg oral), the “Protection (brain water content, cerebral edema)” value worked out at 114.3%.
In turn, `NC(=O)CN1CCCC1=O` [PIR, 2-oxo-1-pyrrolidineacetic acid amide] returned a Protection against amnesia in the data set with hypoxic memory damage (500 mg/kg p.o.) of 85%. The 50% effective dose (ED50) in the data set with hypobaric hypoxia (Rattus norvegicus) came out at 293 mg/kg. Moreover, the “Protection (brain water content, cerebral edema)” value in data set [3] (dose 100 umol/kg oral) is reported as 16.7%.
The molecule dihydroergotoxine [DHE] returned a Protection against amnesia in the data set on hypoxic memory damage (10 mg/kg p.o.) of 63%. Further, the “survival achieved at the high dose of DHE” value with hypobaric hypoxia (rat, 50.0 mg/kg p.o., hypobaric hypoxia) was 40%. In addition, the “Protection against hypobaric hypoxia, ED50” value in the data set on hypobaric hypoxia (rat, 170 Hgmm, dose prolonging survival time by 50% vs placebo control, 60 min) is reported as 50.0 mg/kg p.o. Besides, the “Protection (brain water content, cerebral edema)” value in data set [3] (dose 30 mg/kg oral) is reported as 25.6%.
